Data from ChEMBL document CHEMBL4020829, “Structure-Activity Relationships and Computational Investigations into the Development of Potent and Balanced Dual-Acting Butyrylcholinesterase Inhibitors and Human Cannabinoid Receptor 2 Ligands with Pro-Cognitive in Vivo Profiles” (J Med Chem, 2018).
The source made the active and inactive calls. The calls are words filed in the database; no cut-off is given here.

Assays:
[1] = biological target: T1, Cholinesterase (Homo sapiens, UniProt P06276)
[2] = biological target: T2, Acetylcholinesterase (Homo sapiens, UniProt P22303)
[3] = biological target: Acetylcholinesterase (Electrophorus electricus, UniProt O42275); assay: Inhibition of electric eel AChE using ATC iodide as substrate preincubated for 4.5 mins followed by substrate addition measured after 2.5 mins by Ellman's method
[4] = biological target: T3, Cannabinoid receptor 1 (Homo sapiens, UniProt P21554); assay: Displacement of [3H]-[…] from human CB1 receptor expressed in CHO cell membranes at 10 uM after 3 hrs by scintillation counting method relative to control
[5] = biological target: T4, Cannabinoid receptor 2 (Homo sapiens, UniProt P34972); assay: biochemical
Description: Displacement of [3H]-CP55950 from human CB2 receptor expressed in HEK cell membranes after 3 hrs by scintillation counting method

[6] = biological target: Acetylcholinesterase (Electrophorus electricus) (UniProt O42275); assay: Inhibition of electric eel AChE at 100 uM using ATC iodide as substrate preincubated for 4.5 mins followed by substrate addition measured after 2.5 mins by Ellman's method relative to control
[7] = biological target: T1, Cholinesterase; assay: Inhibition of human BChE at 100 uM using BTC iodide as substrate preincubated for 4.5 mins followed by substrate addition measured after 2.5 mins by Ellman's method relative to control
[8] = tested on: U-266; assay: Cytotoxicity against human U266 cells assessed as decrease in cell viability after 72 hrs by MTT assay; type: cell-based; conditions: U-266, 72 h
[9] = biological target: Acetylcholinesterase (Electrophorus electricus) (UniProt O42275); assay: Inhibition of electric eel AChE at 50 uM using ATC iodide as substrate preincubated for 4.5 mins followed by substrate addition measured after 2.5 mins by Ellman's method relative to control
[10] = biological target: T1, Cholinesterase; assay: Inhibition of human BChE at 50 uM using BTC iodide as substrate preincubated for 4.5 mins followed by substrate addition measured after 2.5 mins by Ellman's method relative to control
[11] = biological target: Acetylcholinesterase (Electrophorus electricus) (UniProt O42275); assay: Inhibition of electric eel AChE at 10 uM using ATC iodide as substrate preincubated for 4.5 mins followed by substrate addition measured after 2.5 mins by Ellman's method relative to control
[12] = biological target: T3, Cannabinoid receptor 1; assay: biochemical; type: cell-based
Description: Displacement of [3H]-CP55950 from human CB1 receptor expressed in CHO cell membranes after 3 hrs by scintillation counting method

[13] = biological target: T2, Acetylcholinesterase; assay: Inhibition of human erythrocyte AChE at 10 uM using ATC iodide as substrate preincubated for 4.5 mins followed by substrate addition measured after 2.5 mins by Ellman's method relative to control
[14] = tested on: Mus musculus; assay: Toxicity in Swiss mouse assessed as changes in fur aspects at 0.3 to 3 mg/kg, ip administered for 7 days measured during compound dosing; type: organism-based; conditions: in vivo, 168 h
[15] = tested on: Mus musculus; assay: Toxicity in Swiss mouse assessed as body weight gain per day at 0.3 mg/kg, ip administered for 7 days measured during compound dosing; type: organism-based; conditions: in vivo, 168 h
[16] = tested on: Mus musculus; assay: Toxicity in Swiss mouse assessed as body weight gain per day at 3 mg/kg, ip administered for 7 days measured during compound dosing; type: organism-based; conditions: in vivo, 168 h
[17] = tested on: Mus musculus; assay: Toxicity in Swiss mouse assessed as behavioral alteration at 0.3 to 3 mg/kg, ip administered for 7 days measured during compound dosing; type: organism-based; conditions: in vivo, 168 h
[18] = tested on: Mus musculus; assay: Toxicity in Swiss mouse assessed as body weight loss at 0.3 to 3 mg/kg, ip administered for 7 days measured during compound dosing; type: organism-based; conditions: in vivo, 168 h
[19] = tested on: Mus musculus; assay: Pro-cognitive activity in ip dosed Swiss mouse assessed as prevention of amyloid beta (25 to 35)-induced step through latency deficit administered for 7 days measured on day 10 by passive avoidance test; type: functional, organism-based
[20] = tested on: Mus musculus; assay: Pro-cognitive activity in Swiss mouse assessed as prevention of amyloid beta (25 to 35)-induced increase in escape latency at 1 to 3 mg/kg, ip administered for 7 days measured on day 10 by passive avoidance test; type: functional, organism-based
[21] = biological target: Acetylcholinesterase (Electrophorus electricus) (UniProt O42275); assay: Inhibition of electric eel AChE at 25 uM using ATC iodide as substrate preincubated for 4.5 mins followed by substrate addition measured after 2.5 mins by Ellman's method relative to control
[22] = tested on: Mus musculus; assay: Toxicity in Swiss mouse assessed as body weight gain per day at 1 mg/kg, ip administered for 7 days measured during compound dosing; type: organism-based; conditions: in vivo, 168 h
[23] = tested on: Mus musculus; assay: Toxicity in Swiss mouse assessed as prostration at 0.3 to 3 mg/kg, ip administered for 7 days measured during compound dosing; type: organism-based; conditions: in vivo, 168 h
[24] = tested on: Mus musculus; assay: Toxicity in Swiss mouse assessed as abdominal pain at 0.3 to 3 mg/kg, ip administered for 7 days measured during compound dosing; type: organism-based; conditions: in vivo, 168 h
[25] = biological target: T1, Cholinesterase; assay: Inhibition of human BChE at 10 uM using BTC iodide as substrate preincubated for 4.5 mins followed by substrate addition measured after 2.5 mins by Ellman's method relative to control
[26] = biological target: T4, Cannabinoid receptor 2; assay: Agonist activity at CB2 receptor in human U266 cells assessed as decrease in AM630-induced cAMP accumulation at 50 uM after 2 hrs by ELISA; type: functional, cell-based
[27] = biological target: Cholinesterase (Equus caballus, UniProt P81908); assay: Inhibition of equine BChE using BTC iodide as substrate preincubated for 4.5 mins followed by substrate addition measured after 2.5 mins by Ellman's method
[28] = biological target: T4, Cannabinoid receptor 2; assay: Agonist activity at CB2 receptor in human U266 cells assessed as decrease in AM630-induced MIF mRNA expression at 50 uM after 2 hrs by qRT-PCR method; type: cell-based
[29] = biological target: T4, Cannabinoid receptor 2; assay: Agonist activity at CB2 receptor in human U266 cells assessed as decrease in cAMP accumulation at 50 uM after 2 hrs by ELISA; type: functional, cell-based
[30] = biological target: T4, Cannabinoid receptor 2; assay: Agonist activity at CB2 receptor in human U266 cells assessed as decrease in AM630-induced STAT3 mRNA expression at 50 uM after 2 hrs by qRT-PCR method; type: cell-based
[31] = biological target: T4, Cannabinoid receptor 2; assay: Agonist activity at CB2 receptor in human U266 cells assessed as decrease in STAT3 mRNA expression at 50 uM after 2 hrs by qRT-PCR method; type: cell-based
[32] = biological target: T4, Cannabinoid receptor 2; assay: Agonist activity at CB2 receptor in human U266 cells assessed as decrease in MIF mRNA expression at 50 uM after 2 hrs by qRT-PCR method; type: cell-based
[33] = biological target: T1, Cholinesterase; assay: Inhibition of human BChE at 25 uM using BTC iodide as substrate preincubated for 4.5 mins followed by substrate addition measured after 2.5 mins by Ellman's method relative to control
[34] = tested on: Mus musculus; assay: Pro-cognitive activity in amyloid beta (25 to 35)-treated Swiss mouse assessed as increase in locomotion by measuring number of arms entered during session at 3 mg/kg, ip administered for 7 days measured on day 8 by Y-maze test; type: functional, organism-based
[35] = tested on: Mus musculus; assay: Pro-cognitive activity in Swiss mouse assessed as prevention of amyloid beta (25 to 35)-induced step through latency deficit at 3 mg/kg, ip administered for 7 days measured on day 10 by passive avoidance test; type: functional, organism-based
[36] = tested on: Mus musculus; assay: Toxicity in Swiss mouse assessed as body weight gain per day at 0.3 to 3 mg/kg, ip administered for 7 days measured during compound dosing; type: organism-based; conditions: in vivo, 168 h
[37] = biological target: T4, Cannabinoid receptor 2; conditions: 10 uM
Description: Displacement of [3H]-CP55950 from human CB2 receptor expressed in HEK cell membranes at 10 uM after 3 hrs by scintillation counting method relative to control

[38] = biological target: T2, Acetylcholinesterase; assay: Inhibition of human erythrocyte AChE at 100 uM using ATC iodide as substrate preincubated for 4.5 mins followed by substrate addition measured after 2.5 mins by Ellman's method relative to control

Acetylcholinesterase (Electrophorus electricus), sequence (O42275 24-633 limits assumed): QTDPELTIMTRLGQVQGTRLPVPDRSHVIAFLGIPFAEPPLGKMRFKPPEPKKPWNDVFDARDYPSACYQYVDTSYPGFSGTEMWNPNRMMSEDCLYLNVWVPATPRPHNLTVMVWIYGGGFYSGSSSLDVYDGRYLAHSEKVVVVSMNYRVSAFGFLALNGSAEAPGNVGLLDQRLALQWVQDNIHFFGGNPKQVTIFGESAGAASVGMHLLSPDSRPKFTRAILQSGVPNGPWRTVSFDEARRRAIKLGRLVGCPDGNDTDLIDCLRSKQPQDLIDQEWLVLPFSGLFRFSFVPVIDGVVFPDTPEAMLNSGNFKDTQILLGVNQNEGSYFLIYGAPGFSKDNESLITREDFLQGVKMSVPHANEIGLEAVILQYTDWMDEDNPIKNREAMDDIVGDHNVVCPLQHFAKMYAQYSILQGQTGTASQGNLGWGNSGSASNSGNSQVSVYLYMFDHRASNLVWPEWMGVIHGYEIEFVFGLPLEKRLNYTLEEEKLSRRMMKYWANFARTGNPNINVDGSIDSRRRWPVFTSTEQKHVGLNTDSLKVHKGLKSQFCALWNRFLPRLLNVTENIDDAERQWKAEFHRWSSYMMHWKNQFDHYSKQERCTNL
Cholinesterase (Equus caballus, UniProt P81908), sequence (P81908 whole entry): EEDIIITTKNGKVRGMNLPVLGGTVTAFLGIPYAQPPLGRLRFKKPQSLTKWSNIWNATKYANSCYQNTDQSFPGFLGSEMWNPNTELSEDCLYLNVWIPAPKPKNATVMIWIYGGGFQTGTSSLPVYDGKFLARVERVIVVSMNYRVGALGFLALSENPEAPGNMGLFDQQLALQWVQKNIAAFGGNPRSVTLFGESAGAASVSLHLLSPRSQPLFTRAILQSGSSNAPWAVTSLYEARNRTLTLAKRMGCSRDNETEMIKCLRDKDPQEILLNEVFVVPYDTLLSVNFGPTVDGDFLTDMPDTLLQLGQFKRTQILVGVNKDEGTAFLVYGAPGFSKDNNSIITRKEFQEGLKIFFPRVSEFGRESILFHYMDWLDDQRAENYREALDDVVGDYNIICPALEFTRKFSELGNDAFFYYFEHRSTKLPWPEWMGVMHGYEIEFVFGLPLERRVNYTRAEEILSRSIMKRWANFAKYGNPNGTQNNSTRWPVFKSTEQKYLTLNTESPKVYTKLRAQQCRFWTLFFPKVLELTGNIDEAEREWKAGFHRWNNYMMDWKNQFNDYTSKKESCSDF
T2 sequence (P22303 whole entry): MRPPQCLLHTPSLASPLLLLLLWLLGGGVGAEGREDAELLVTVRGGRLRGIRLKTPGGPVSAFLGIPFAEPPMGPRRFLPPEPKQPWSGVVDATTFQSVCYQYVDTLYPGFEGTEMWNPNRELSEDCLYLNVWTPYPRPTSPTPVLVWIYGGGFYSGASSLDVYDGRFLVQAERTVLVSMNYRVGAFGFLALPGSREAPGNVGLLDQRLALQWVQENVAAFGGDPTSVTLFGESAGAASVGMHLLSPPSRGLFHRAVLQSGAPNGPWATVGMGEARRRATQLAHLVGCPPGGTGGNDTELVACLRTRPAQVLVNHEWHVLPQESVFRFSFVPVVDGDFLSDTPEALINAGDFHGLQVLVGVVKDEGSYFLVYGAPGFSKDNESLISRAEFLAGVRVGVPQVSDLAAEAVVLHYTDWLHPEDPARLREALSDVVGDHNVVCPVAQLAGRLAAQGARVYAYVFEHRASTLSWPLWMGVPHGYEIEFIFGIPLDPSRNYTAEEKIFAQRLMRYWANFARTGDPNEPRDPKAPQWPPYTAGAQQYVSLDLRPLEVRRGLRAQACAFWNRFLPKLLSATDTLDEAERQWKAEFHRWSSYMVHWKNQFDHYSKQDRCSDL
T4 sequence (P34972 whole entry): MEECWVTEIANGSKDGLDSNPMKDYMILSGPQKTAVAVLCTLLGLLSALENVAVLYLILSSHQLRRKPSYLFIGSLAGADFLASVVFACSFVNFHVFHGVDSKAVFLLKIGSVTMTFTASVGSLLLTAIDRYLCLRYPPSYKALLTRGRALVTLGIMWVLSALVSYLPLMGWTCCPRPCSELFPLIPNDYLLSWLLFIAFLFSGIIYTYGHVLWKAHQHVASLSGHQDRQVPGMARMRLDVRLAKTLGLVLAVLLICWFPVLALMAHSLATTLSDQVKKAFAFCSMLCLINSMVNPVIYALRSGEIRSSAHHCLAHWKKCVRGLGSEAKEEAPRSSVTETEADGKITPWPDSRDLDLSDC
T3 sequence (P21554 whole entry): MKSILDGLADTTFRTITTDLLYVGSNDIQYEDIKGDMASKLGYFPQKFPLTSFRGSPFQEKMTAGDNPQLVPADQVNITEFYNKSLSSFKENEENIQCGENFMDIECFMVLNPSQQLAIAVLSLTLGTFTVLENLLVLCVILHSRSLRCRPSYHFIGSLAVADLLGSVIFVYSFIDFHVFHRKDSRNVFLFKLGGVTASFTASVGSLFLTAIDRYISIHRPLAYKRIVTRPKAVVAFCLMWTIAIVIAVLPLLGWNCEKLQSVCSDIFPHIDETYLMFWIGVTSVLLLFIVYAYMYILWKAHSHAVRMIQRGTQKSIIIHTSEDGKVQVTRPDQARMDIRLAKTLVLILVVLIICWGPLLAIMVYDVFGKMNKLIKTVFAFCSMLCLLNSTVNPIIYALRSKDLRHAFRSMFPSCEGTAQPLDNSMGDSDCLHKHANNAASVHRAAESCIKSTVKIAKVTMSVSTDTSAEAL
T1 sequence (P06276 whole entry): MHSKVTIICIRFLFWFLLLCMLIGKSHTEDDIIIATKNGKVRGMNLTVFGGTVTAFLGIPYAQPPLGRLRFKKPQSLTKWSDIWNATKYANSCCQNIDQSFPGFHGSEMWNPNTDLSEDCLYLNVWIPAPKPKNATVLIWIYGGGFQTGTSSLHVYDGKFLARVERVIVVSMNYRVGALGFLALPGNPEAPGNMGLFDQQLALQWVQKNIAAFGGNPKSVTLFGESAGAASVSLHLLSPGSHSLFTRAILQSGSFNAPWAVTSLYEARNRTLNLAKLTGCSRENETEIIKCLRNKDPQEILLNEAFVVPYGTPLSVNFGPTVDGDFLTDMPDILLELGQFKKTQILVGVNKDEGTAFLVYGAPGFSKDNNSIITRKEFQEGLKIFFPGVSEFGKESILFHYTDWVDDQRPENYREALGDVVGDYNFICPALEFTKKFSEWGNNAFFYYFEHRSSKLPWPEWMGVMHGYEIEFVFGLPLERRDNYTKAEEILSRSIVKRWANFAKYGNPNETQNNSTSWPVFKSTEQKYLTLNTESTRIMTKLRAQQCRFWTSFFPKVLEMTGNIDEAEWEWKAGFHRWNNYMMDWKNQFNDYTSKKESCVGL
Acetylcholinesterase (Electrophorus electricus, UniProt O42275), sequence (O42275 whole entry): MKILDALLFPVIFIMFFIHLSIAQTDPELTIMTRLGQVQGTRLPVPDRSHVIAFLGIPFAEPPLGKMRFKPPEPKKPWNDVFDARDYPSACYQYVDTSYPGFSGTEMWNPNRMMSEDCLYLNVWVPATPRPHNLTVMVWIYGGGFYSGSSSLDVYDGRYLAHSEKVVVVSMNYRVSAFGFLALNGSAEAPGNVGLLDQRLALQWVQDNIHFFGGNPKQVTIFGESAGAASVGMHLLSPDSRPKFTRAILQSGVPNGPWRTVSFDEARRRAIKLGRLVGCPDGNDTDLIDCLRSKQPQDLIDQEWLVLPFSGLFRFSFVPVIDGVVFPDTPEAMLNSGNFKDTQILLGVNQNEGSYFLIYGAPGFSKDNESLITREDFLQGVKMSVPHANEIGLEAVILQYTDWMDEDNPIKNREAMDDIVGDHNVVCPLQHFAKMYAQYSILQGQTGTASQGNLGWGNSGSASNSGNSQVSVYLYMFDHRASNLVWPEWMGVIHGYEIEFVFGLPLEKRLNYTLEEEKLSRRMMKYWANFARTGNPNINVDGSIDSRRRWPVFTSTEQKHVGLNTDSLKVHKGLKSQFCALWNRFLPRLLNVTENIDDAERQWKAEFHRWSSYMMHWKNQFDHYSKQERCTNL

Structure (SMILES)	IC50 [1] [µM]	inhibition [4] [%]	IC50 [5] [µM]	Ki [5] [µM]	inhibition [6] [%]	IC50 [8] [µM]	inhibition [11] [%]	inhibition [13] [%]	inhibition [25] [%]	other results
CCOc1ccc(Cc2nc3cc(C(=O)N(CC)CC)ccc3n2CCCCCCN2CCCCC2)cc1	8.2	4	1.26	1						IC50 [2]: 20 µM; IC50 [3]: 11.9 µM
CCOc1ccc(Cc2nc3cc(N)ccc3n2CCC(C)C)cc1		27	20	21	15					inhibition [7]: 39%
CCOc1ccc(Cc2nc3cc(C(=O)N(CC)CC)ccc3n2CCCCN2CCCCC2)cc1	2.7	2	5.01	4.8		> 40				IC50 [2]: 60.1 µM; IC50 [3]: 20.5 µM
CCOc1ccc(CNc2nc3cc(C(=O)N(CC)CC)ccc3n2CCC(C)C)cc1		21	0.398	0.353						inhibition [9]: 7%; inhibition [10]: 4%
CCOc1ccc(Cc2nc3cc(C(=O)N4CCCCC4)ccc3n2CCC(C)C)cc1	5.7		0.398	0.384			8	2		IC50 [12]: 15.8 µM; Ki [12]: 17 µM
CCOc1ccc(Cc2nc3cc(C(=O)NCCC(C)C)ccc3n2CCC(C)C)cc1		37				> 40		11		Activity [14]: Non-Toxic; Activity [15]: 0.2 g; Activity [16]: 0 g; Activity [17]: Non-Toxic; Activity [18]: Non-Toxic; Activity [19]: Dose-dependent effect; Activity [20]: Active; inhibition [21]: 3%; Activity [22]: 0.1 g; Activity [23]: Non-Toxic; Activity [24]: Non-Toxic
CCCCCCNC(=O)c1ccc2c(c1)nc(Cc1ccc(OCC)cc1)n2CCC(C)C	5.2	39	2	1.9		> 40	8	6		
CCOc1ccc(Cc2nc3cc(C(=O)NC45CC6CC(CC(C6)C4)C5)ccc3n2CCC(C)C)cc1		31	5.01	4.7		> 40	5		1	
CCN(CC)C(=O)c1ccc2c(c1)nc(Nc1ccc(Oc3ccccc3)cc1)n2CCC(C)C		45	0.501	0.426	2	> 40		3	0	Activity [26]: Active; IC50 [27]: 3.7 µM; Activity [28]: Active; Activity [29]: Active; Activity [30]: Active; Activity [31]: Active; Activity [32]: Active
CCN(CC)C(=O)c1ccc2c(c1)nc(Nc1ccc(Oc3ccccc3)cc1)n2CCN1CCCCC1		37	7.94	8.9						inhibition [33]: 4%; inhibition [21]: 3%
CCOc1ccc(Nc2nc3cc(C(=O)N(CC)CC)ccc3n2CCC(C)C)cc1		13	2	1.9	4	> 40		13	3	Activity [26]: Active; Activity [34]: Active; IC50 [27]: 0.7 µM; Activity [35]: Active; Activity [20]: Active; Activity [28]: Active; Activity [29]: Active; Activity [36]: 0.3 g; Activity [30]: Active; Activity [31]: Active; Activity [32]: Active
CCOc1ccc(Nc2nc3cc(C(=O)N(CC)CC)ccc3n2CCN2CCCCC2)cc1	53.4	17	12.6	10.4	18			3		
Cc1c(C(=O)NN2CCCCC2)nn(-c2ccc(Cl)cc2Cl)c1-c1ccc(Cl)cc1										inhibition [37]: 4%
CCOc1ccc(Cc2nc3cc(NC(=O)c4ccccc4)ccc3n2CCC(C)C)cc1		36	3.98	4.3			2		25	
CCOc1ccc(Cc2nc3cc(C(=O)Nc4ccccc4)ccc3n2CCC(C)C)cc1	1.2	18	15.8	14.4		> 40	2	5		
CCOc1ccc(Cc2nc3cc(C(=O)N(CC)CC)ccc3n2CCC(C)C)cc1		24			28				2	Activity [26]: Active; Activity [34]: Active; IC50 [27]: 9.7 µM; Activity [20]: Active; Activity [28]: Active; inhibition [38]: 6%; Activity [29]: Active; Activity [36]: 0.3 g; Activity [30]: Active; Activity [31]: Active; Activity [32]: Active
